# According to patent US20220040180A1, “KITS AND METHODS FOR TREATING CANCERS” (Spectrum Pharmaceuticals, Inc., priority 2018, published 2022):
# Columns and labels:
# Assay type in all cases: physicochemical
# [1] = Dynamic vapor sorption (DVS) hygroscopicity
# Experimental: Dynamic Vapor Sorption (DVS) analysis was conducted on the DVS advantage (Surface measurement system, United Kingdom) analyzer at 25° C. and relative humidity of 0-90%.
# 10 mg of sample was placed in the wire mesh steam sorption balance pan and attached to the DVS-advantage dynamic vapor adsorption balance by the Surface Measurement Systems. […] After the completion of the sorption cycle, the sample was dried using the same procedure, during which the relative humidity was returned to a relative humidity […] all the time. The change in weight during the sorption/desorption cycle (repetition of 3 times) was recorded to determine the hygroscopicity of the sample.
# [2] = Behaviour under long-term, accelerated and harsh storage conditions (moisture absorption, stability of form)
# [3] = Test Example 1: comparative solubility of amorphous and crystalline hydrochloride salt forms (HPLC); details: 25° C., loading of 1.0 mg/mL; for Solubility, Water: LOD 0.1 μg/mL
# Experimental: To compare the solubility of amorphous hydrochloride salt form and crystalline hydrochloride salt polymorphs, each of the polymorphs and amorphous form of the hydrochloride salt of the compound of chemical formula (1) prepared in Examples 4 to 6 was used to prepare samples under the following conditions according to non-ionized water and acidity (pH). Thereafter, each solution was analyzed by high performance liquid chromatography (HPLC) according to the measurement conditions of the content of the compound of chemical formula (1) to measure the dissolved amount (LOD: 0.1 μg/mL) based on the compound of chemical formula (1).
# Specifically, 5 mg of each polymorph was added to 5 ml of water and mixed using a Voltamixer at 20-25° C. Thereafter, the filtrate obtained by filtrating using GH Polypro membrane Acrodisc, PALL (pore size 0.2 μm) was diluted with a dilution solvent for high performance liquid chromatography (HPLC) at a ratio of 1/100, to obtain the samples.
# [4] = Test Example 2: comparative storage stability of hydrochloride salt forms, purity by HPLC
# Experimental: High performance liquid chromatography (HPLC) was conducted on the Agilent 1100/1200 series HPLC Systems (Agilent, USA) analyzer for the purpose of purity and content analysis including stability test and the like. The analysis conditions of the HPLC are as follows.
# To compare the stability of amorphous hydrochloride salt form and crystalline hydrochloride salt polymorphs, each of samples of the polymorphs and amorphous form of the hydrochloride salt of the compound of chemical formula (1) prepared in Examples 4 to 6 was left for 4 weeks under long term conditions (e.g., temperature of 25±2° C. and relative humidity of 60±5%) and accelerated conditions (e.g., temperature of 40° C. and relative humidity of 75%). Each sample was analyzed by high performance liquid chromatography (HPLC) according to the purity measurement conditions of the compound of chemical formula (1).
# [5] = Solubility in water of the compound of chemical formula (1); details: amorphous free base
# [6] = relative humidity range of 10-90%, 25° C.
# [7] = 25 ± 2° C., 60 ± 5% RH, listed as HCl cryst. hydrate
# [8] = 40 ± 2° C., 75 ± 5% RH, listed as HCl cryst. hydrate
# [9] = 25 ± 2° C., 60 ± 5% RH, listed as HCl cryst. anhydrate
# [10] = 40 ± 2° C., 75 ± 5% RH, listed as HCl cryst. anhydrate
smiles,measurement,setting,value
"C=CC(=O)N1CCC(Oc2cc3c(Nc4ccc(Cl)c(Cl)c4F)ncnc3cc2OC)CC1 [Example 3, 1-(4-(4-(3,4-dichloro-2-fluorophenylamino)-7-methoxyquinazolin-6-yloxy)piperidin-1-yl)prop-2-en-1-one]",hygroscopic degree (DVS),"[1]; relative humidity range of 0-90%, listed as crystalline anhydrous Form II",very low
same,hygroscopic degree (DVS),[1]; [6],about 0.7%
same,stability of the crystalline form on storage,"[2]; long-term (25° C., 60% RH), accelerated (40° C., 75% RH) and harsh (60° C.) conditions",sufficiently stable
"C=CC(=O)N1CCC(Oc2cc3c(Nc4ccc(Cl)c(Cl)c4F)ncnc3cc2OC)CC1 [Example 4, 1-(4-(4-(3,4-dichloro-2-fluorophenylamino)-7-methoxyquinazolin-6-yloxy)piperidin-1-yl)prop-2-en-1-one]","Solubility, pH 1.2",[3]; listed as HCl cryst. hydrate,5 μg/mL
same,"Solubility, pH 2.0",[3]; listed as HCl cryst. hydrate,7 μg/mL
same,"Solubility, pH 4.0",[3]; listed as HCl cryst. hydrate,48 μg/mL
same,"Solubility, Water",[3]; listed as HCl cryst. hydrate,<LOD
same,"Purity (HPLC, %) 3 days",[4]; [7],99.2%
same,"Purity (HPLC, %) Start",[4]; [7],99.2%
same,"Purity (HPLC, %) Week 1",[4]; [7],99.2%
same,"Purity (HPLC, %) Week 2",[4]; [7],99.1%
same,"Purity (HPLC, %) Week 4",[4]; [7],99.2%
same,"Purity (HPLC, %) 3 days",[4]; [8],99.3%
same,"Purity (HPLC, %) Start",[4]; [8],99.2%
same,"Purity (HPLC, %) Week 1",[4]; [8],99.2%
same,"Purity (HPLC, %) Week 2",[4]; [8],99.1%
same,"Purity (HPLC, %) Week 4",[4]; [8],99.2%
same,hygroscopic degree (DVS),[1]; [6],about 0.4%
same,hygroscopic degree (DVS),"[1]; relative humidity range of 10-90%, 25° C., listed as crystalline monohydrochloride monohydrate (1HCl.1H2O) form",very low
"C=CC(=O)N1CCC(Oc2cc3c(Nc4ccc(Cl)c(Cl)c4F)ncnc3cc2OC)CC1 [Example 5, 1-(4-(4-(3,4-dichloro-2-fluorophenylamino)-7-methoxyquinazolin-6-yloxy)piperidin-1-yl)prop-2-en-1-one]","Solubility, pH 1.2",[3]; listed as HCl cryst. anhydrate,92 μg/mL
same,"Solubility, pH 2.0",[3]; listed as HCl cryst. anhydrate,140 μg/mL
same,"Solubility, pH 4.0",[3]; listed as HCl cryst. anhydrate,74 μg/mL
same,"Solubility, Water",[3]; listed as HCl cryst. anhydrate,20 µg/mL
same,"Purity (HPLC, %) 3 days",[4]; [9],99.4%
same,"Purity (HPLC, %) Start",[4]; [9],99.4%
same,"Purity (HPLC, %) Week 1",[4]; [9],99.4%
same,"Purity (HPLC, %) Week 2",[4]; [9],99.5%
same,"Purity (HPLC, %) Week 4",[4]; [9],99.5%
same,"Purity (HPLC, %) 3 days",[4]; [10],99.4%
same,"Purity (HPLC, %) Start",[4]; [10],99.4%
same,"Purity (HPLC, %) Week 1",[4]; [10],99.4%
same,"Purity (HPLC, %) Week 2",[4]; [10],99.5%
same,"Purity (HPLC, %) Week 4",[4]; [10],99.5%
same,hygroscopic degree (DVS),[1]; [6],about 0.35%
same,hygroscopic degree (DVS),"[1]; relative humidity range of 10-90%, 25° C., listed as crystalline anhydrous monohydrochloride (1HCl) form",very low
same,moisture absorption on storage,"[2]; 25° C., 60% relative humidity and 40° C., 75% relative humidity",did not absorb moisture
"C=CC(=O)N1CCC(Oc2cc3c(Nc4ccc(Cl)c(Cl)c4F)ncnc3cc2OC)CC1 [Example 6, 1-(4-(4-(3,4-dichloro-2-fluorophenylamino)-7-methoxyquinazolin-6-yloxy)piperidin-1-yl)prop-2-en-1-one]","Solubility, pH 1.2",[3]; listed as HCl amorphous,274 μg/mL
same,"Solubility, pH 2.0",[3]; listed as HCl amorphous,213 μg/mL
same,"Solubility, pH 4.0",[3]; listed as HCl amorphous,34 μg/mL
same,"Solubility, Water",[3]; listed as HCl amorphous,53 µg/mL
"C=CC(=O)N1CCC(Oc2cc3c(Nc4ccc(Cl)c(Cl)c4F)ncnc3cc2OC)CC1 [Reference Example, 1-(4-(4-(3,4-dichloro-2-fluorophenylamino)-7-methoxyquinazolin-6-yloxy)piperidin-1-yl)prop-2-en-1-one]",hygroscopic degree (DVS),[1]; [6],1-3%
same,solubility,[5],< 1 µg/mL
